Reference: US9777002B2, “Inhibitors of the renal outer medullary potassium channel” (Merck Sharp & Dohme Corp., priority 2012, dated 2017)

Molecular target: T1, hROMK (hKir1.1) (Homo sapiens, UniProt P48048)
T1 construct: expressed in transfected cells
T1 sequence (P48048 1-391): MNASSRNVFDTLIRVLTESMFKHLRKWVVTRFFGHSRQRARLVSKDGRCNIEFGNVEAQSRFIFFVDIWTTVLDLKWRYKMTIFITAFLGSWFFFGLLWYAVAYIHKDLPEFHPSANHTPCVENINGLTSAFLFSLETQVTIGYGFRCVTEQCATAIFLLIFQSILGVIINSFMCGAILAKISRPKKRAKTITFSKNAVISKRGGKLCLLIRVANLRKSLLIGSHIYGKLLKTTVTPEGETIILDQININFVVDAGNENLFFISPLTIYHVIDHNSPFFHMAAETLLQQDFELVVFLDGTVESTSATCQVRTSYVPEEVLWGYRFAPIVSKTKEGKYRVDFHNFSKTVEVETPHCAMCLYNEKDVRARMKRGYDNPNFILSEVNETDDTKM
Assay: Thallium Flux Assay
Format: cell-based
Conditions: HEK293 cells stably expressing hROMK (hKir1.1)
Summary of the method: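 HEK293 cells stably expressing hROMK were loaded with FluxOR dye for 90 min, then incubated with compound in probenecid assay buffer plus 0.3 mM ouabain, pH 7.4, for 30 min at 23-25 °C. Flux was triggered with 3 mM thallium/0.3 mM potassium (final) and read on FLIPR-Tetra for ~10 min. IC50 was calculated against the signal blocked by 3 μM control inhibitor.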

IC50 [nM] | SMILES
220 | Cc1c([C@@H](O)CN2CCC(NC(=O)c3ccc4nonc4c3)CC2)ccc2c1COC2=O [Example 66, (R)-N-(1-(2-Hydroxy-2-(4-methyl-1-oxo-1,3-dihydroisobenzofuran-5-yl)ethyl)piperidin-4-yl)benzo[c][1,2,5]oxadiazole-5-carboxamide]
360 | Cc1c([C@@H](O)CN2CCCC(C)(CNC(=O)c3ccc(-n4cnnn4)cn3)C2)ccc2c1COC2=O (stereo partly drawn) [Example 67, N-((1-((R)-2-Hydroxy-2-(4-methyl-1-oxo-1,3-dihydroisobenzofuran-5-yl)ethyl)-3-methylpiperidin-3-yl)methyl)-5-(1H-tetrazol-1-yl)picolinamide]
630 | Cc1c([C@@H](O)CN2CCC(CNC(=O)c3ccc(-n4cnnn4)cn3)(c3ccccc3)C2)ccc2c1COC2=O (stereo partly drawn) [Example 68, N-((1-((R)-2-Hydroxy-2-(4-methyl-1-oxo-1,3-dihydroisobenzofuran-5-yl)ethyl)-3-phenylpyrrolidin-3-yl)methyl)-5-(1H-tetrazol-1-yl)picolinamide]
760 | Cc1c([C@@H](O)CN2CCC(C3(NC(=O)c4ccc(-n5cnnn5)cn4)CCC3)C2)ccc2c1COC2=O (stereo partly drawn) [Example 70, N-(1-(1-((R)-2-Hydroxy-2-(4-methyl-1-oxo-1,3-dihydroisobenzofuran-5-yl)ethyl)pyrrolidin-3-yl)cyclobutyl)-5-(1H-tetrazol-1-yl)picolinamide]
280 | Cc1c([C@@H](O)CN2CCC(C)(NC(=O)c3ccc(-n4cnnn4)nn3)CC2)ccc2c1COC2=O [Example 71, (R)-N-(1-(2-Hydroxy-2-(4-methyl-1-oxo-1,3-dihydroisobenzofuran-5-yl)ethyl)-4-methylpiperidin-4-yl)-6-(1H-tetrazol-1-yl)pyridazine-3-carboxamide]
80 | Cc1c([C@@H](O)CN2CCC(C)(NC(=O)c3cnc(-n4cnnn4)cn3)CC2)ccc2c1COC2=O [Example 72, (R)-N-(1-(2-Hydroxy-2-(4-methyl-1-oxo-1,3-dihydroisobenzofuran-5-yl)ethyl)-4-methylpiperidin-4-yl)-5-(1H-tetrazol-1-yl)pyrazine-2-carboxamide]
270 | Cc1c([C@@H](O)CN2CCC(NC(=O)c3ccc(-n4cccn4)nc3)CC2)ccc2c1COC2=O [Example 73, (R)-N-(1-(2-Hydroxy-2-(4-methyl-1-oxo-1,3-dihydroisobenzofuran-5-yl)ethyl)piperidin-4-yl)-6-(1H-pyrazol-1-yl)nicotinamide]
630 | Cc1c([C@@H](O)CN2CCC(NC(=O)c3ccc(-n4cncn4)cc3)CC2)ccc2c1COC2=O [Example 74, (R)-N-(1-(2-Hydroxy-2-(4-methyl-1-oxo-1,3-dihydroisobenzofuran-5-yl)ethyl)piperidin-4-yl)-4-(1H-1,2,4-triazol-1-yl)benzamide]
390 | Cc1c([C@@H](O)CN2CCC(NC(=O)c3ccc(-c4nccs4)cc3)CC2)ccc2c1COC2=O [Example 75, (R)-N-(1-(2-Hydroxy-2-(4-methyl-1-oxo-1,3-dihydroisobenzofuran-5-yl)ethyl)piperidin-4-yl)-4-(thiazol-2-yl)benzamide]
530 | Cc1c([C@@H](O)CN2CCC(C)(NC(=O)c3ccc4nonc4c3)CC2)ccc2c1COC2=O [Example 77, (R)-N-(1-(2-Hydroxy-2-(4-methyl-1-oxo-1,3-dihydroisobenzofuran-5-yl)ethyl)-4-methylpiperidin-4-yl)benzo[c][1,2,5]oxadiazole-5-carboxamide]
560 | Cc1cc(C(=O)NC2CCN(C[C@H](O)c3ccc4c(c3C)COC4=O)CC2)ccc1-n1cnnn1 [Example 78, (R)-N-(1-(2-Hydroxy-2-(4-methyl-1-oxo-1,3-dihydroisobenzofuran-5-yl)ethyl)piperidin-4-yl)-3-methyl-4-(1H-tetrazol-1-yl)benzamide]
370 | Cc1c([C@@H](O)CN2CCC(NC(=O)c3ccc(-n4cnnn4)c4ncccc34)CC2)ccc2c1COC2=O [Example 79, (R)-N-(1-(2-Hydroxy-2-(4-methyl-1-oxo-1,3-dihydroisobenzofuran-5-yl)ethyl)piperidin-4-yl)-8-(1H-tetrazol-1-yl)quinoline-5-carboxamide]
970 | Cc1c([C@@H](O)CN2CCCC(C(C)(C)NC(=O)c3ccc(-n4cnnn4)nc3)C2)ccc2c1COC2=O (stereo partly drawn) [Example 80, N-(2-(1-((R)-2-Hydroxy-2-(4-methyl-1-oxo-1,3-dihydroisobenzofuran-5-yl)ethyl)piperidin-3-yl)propan-2-yl)-6-(1H-tetrazol-1-yl)nicotinamide]
720 | Cc1c([C@@H](O)CN2CCCC(C)(CNC(=O)c3ccc(-n4cnnn4)nc3)C2)ccc2c1COC2=O (stereo partly drawn) [Example 83, N-((1-((R)-2-Hydroxy-2-(4-methyl-1-oxo-1,3-dihydroisobenzofuran-5-yl)ethyl)-3-methylpiperidin-3-yl)methyl)-6-(1H-tetrazol-1-yl)nicotinamide]
190 | Cc1c([C@@H](O)CN2CCC(C)(CNC(=O)c3ccc(-n4cnnn4)nc3)C2)ccc2c1COC2=O (stereo partly drawn) [Example 84, N-((1-((R)-2-Hydroxy-2-(4-methyl-1-oxo-1,3-dihydroisobenzofuran-5-yl)ethyl)-3-methylpyrrolidin-3-yl)methyl)-6-(1H-tetrazol-1-yl)nicotinamide]
370 | Cc1cc(C(=O)NCC2CCN(C[C@H](O)c3ccc4c(c3C)COC4=O)C2)ncc1-n1cnnn1 (stereo partly drawn) [Example 85, N-((1-((R)-2-Hydroxy-2-(4-methyl-1-oxo-1,3-dihydroisobenzofuran-5-yl)ethyl)pyrrolidin-3-yl)methyl)-4-methyl-5-(1H-tetrazol-1-yl)picolinamide]
980 | Cc1c([C@@H](O)CN2CCC(CNC(=O)c3ccc(-n4cnnn4)cn3)C2)ccc2c1COC2=O (stereo partly drawn) [Example 86, N-((1-((R)-2-Hydroxy-2-(4-methyl-1-oxo-1,3-dihydroisobenzofuran-5-yl)ethyl)pyrrolidin-3-yl)methyl)-5-(1H-tetrazol-1-yl)picolinamide]
30 | Cc1c([C@@H](O)CN2CCC(N3Cc4cc([N+](=O)[O-])ccc4C3=O)CC2)ccc2c1COC2=O [Example 88, (R)-2-(1-(2-Hydroxy-2-(4-methyl-1-oxo-1,3-dihydroisobenzofuran-5-yl)ethyl)piperidin-4-yl)-5-nitroisoindolin-1-one]
260 | Cc1c([C@@H](O)CN2CCC(CNC(=O)c3ccc4nonc4c3)C2)ccc2c1COC2=O (stereo partly drawn) [Example 89, N-((1-((R)-2-Hydroxy-2-(4-methyl-1-oxo-1,3-dihydroisobenzofuran-5-yl)ethyl)pyrrolidin-3-yl)methyl)benzo[c][1,2,5]oxadiazole-5-carboxamide]

SMILES | IC50 [nM]
Cc1c([C@@H](O)CN2C3CCC2CC(NC(=O)c2ccc(-n4cnnn4)cn2)C3)ccc2c1COC2=O (stereo partly drawn) [Example 76, N-(8-((R)-2-Hydroxy-2-(4-methyl-1-oxo-1,3-dihydroisobenzofuran-5-yl)ethyl)-8-azabicyclo[3.2.1]octan-3-yl)-5-(1H-tetrazol-1-yl)picolinamide] | 430
Cc1c([C@@H](O)CN2C3CCC2CC(NC(=O)c2ccc(-n4cnnn4)nc2)C3)ccc2c1COC2=O (stereo partly drawn) [Example 82, N-(8-((R)-2-Hydroxy-2-(4-methyl-1-oxo-1,3-dihydroisobenzofuran-5-yl)ethyl)-8-azabicyclo[3.2.1]octan-3-yl)-6-(1H-tetrazol-1-yl)nicotinamide] | 250
